What all share (type): cell-based, human
The subject of assay [1] is A549. As to the kind of experiment: Crystal Violet assay of BAL27862-resistant cell line versus parental line. An excerpt: (§1) BAL27862-resistant sublines of human non-small cell lung cancer (H460 ATCC reference HTB-177; A549 ATCC reference CCL-185), ovarian cancer (SKOV3 ATCC reference HTB-77) lines were generated by long-term selection in complete cell culture medium (RPMI-1640 containing 10% FCS; Sigma-Aldrich) by stepwise increasing concentrations of BAL27862. […] The resistant sublines were expanded at the highest tolerated BAL27862 concentration and subsequently frozen and stored in liquid nitrogen.
(§2) After medium was removed, cells were fixed and stained by adding 50 μl Crystal Violet Staining (0.2% Crystal Violet in 50% Methanol) per well. Plates were incubated for 1 hour at room temperature. Subsequently the stain was decanted and plates were washed 4 times with double-distilled water. Plates were air-dried for several hours. Stain was dissolved by adding 100 μl buffer (0.1 M Tris pH 7.5, 0.2% SDS, 20% Ethanol) per well and shaking the plates. Absorbance at 590 nm was measured using a SpectraMax M2e plate reader (Molecular Devices). Anti-proliferative IC50 values were calculated from concentration response curves using GraphPad Prism software. Resistance factors were calculated as a ratio of BAL27862 IC50 in the resistant line variant versus the IC50 in the parental line.

Assay [2] relates to H460. Described as above.
Description: as §1, §2

Assay [3] deals with SKOV3 resistant 1. The assay is described as above.
Description: as §1, §2

In assay [4] the test system is SKOV3 resistant 2. The description is as above.
Description: as §1, §2

Assay [5] relates to HeLa cells. As to the kind of experiment: BUBR1 siRNA pool, tumour cell phenotype and cell number by immunostaining. As to conditions: 50 nM BAL27862, 24 hours, 48 hours after siRNA. As for the experimental part: In order to show BUBR1 is a biomarker of resistance, siRNA experiments were performed. For siRNA experiments to assess effects on tumour cell phenotype and numbers (FIG. 8), HeLa (ATCC reference CCL-2) cervical cancer cells were cultured at 37° C. and 5% CO2 in DMEM with 10% FCS (Invitrogen). 1000 HeLa cells per well were seeded into black 384 well multititer plates (BD Falcon). Cells were reversely transfected with 20 nM non-targeting control siRNA (ON-Target-plus non-targeting pool D001810, Dharmacon) or a mixture of four BUBR1 siRNAs (ON-Target-plus Smartpool L-004101, Dharmacon, see sequence information below) using Dharmafect1 (Dharmacon, Thermo) transfection reagent. 48 hours after cell seeding and siRNA transfection, one replicate pair of siRNA clones was treated with BAL27862 (50 nM, 0.1% DMSO) and another replicate pair with control solution (0.1% DMSO) for 24 hours. […] Based on the immunostaining, the morphology of treated cells was analysed using a multiparametric approach (BD Pathway 855 fluorescence microscope; 20× objective) with appropriate software. The number of cells per well was also calculated based on Hoe33342 staining of nuclei. […]

Assay [6] has as its system HeLa cells. As to the kind of experiment: Crystal Violet assay of siRNA-treated cells. The following applies: 48 hours. As for the experimental part: (§3) For siRNA experiments to assess effects on BUBR1 expression levels by immunoblotting and effects on tumour cell proliferation and viability using the YO-PRO assay (FIGS. 7, 9,10 and 11), and Crystal Violet Assay (FIGS. 12 and 13), cells were seeded in 6 well plates at an appropriate density: HeLa (cervical cancer cells; ATCC reference CCL-2) 2.5E+04 (for YO-PRO) or 4.0E+04 (for Crystal Violet) cells per well, H460 (NSCLC cells; ATCC reference HTB-177) 5.0E+04 cells per well, MCF-7 (breast carcinoma cells; ATCC reference HTB-22) 2.4E+05 cells per well, Panc1 (pancreatic cancer cells, ATCC reference CRL-1469) and HCT116 (colon cancer cells, ATCC reference CCI-247) 8E+04 cells per well, and were cultured at 37° C. and 5% CO2 in RPMI-1640 or DMEM containing 10% FCS (complete medium). Cells were transfected the following day with a mixture of four BUBR1 siRNAs (ON-Target-plus Smartpool L-004101, Dharmacon, see sequence information below), the four individual BUBR1 siRNAs (ON-Target-plus Set of four upgrade LU-004101) or non-targeting control siRNAs (ON-Target-plus non-targeting pool D001810, Dharmacon), using Hiperfect (Qiagen) for H460, Panc1 and HCT116 or Lipofectamine2000 (Invitrogen) for HeLa and MCF-7 according to manufacturer's instructions. The final concentration of siRNA was 10 nM (H460) or 20-30 nM (HeLa) or 20 nM (MCF-7, Panc1, HCT116). Cells were maintained at 37° C. and 5% CO2 for 24 hours before compound treatment for 48 hours, followed by YO-PRO analysis, Crystal Violet Assay or extraction for immunoblot assay. ON-Target-plus siRNAs are dual-strand siRNAs, chemically modified to improve specificity for the desired target.
(§4) Cells were incubated for 48 hours with DMSO or BAL27862 diluted in complete medium (final concentration DMSO 0.5%). After medium was removed, cells were fixed and stained by adding 1 ml Crystal Violet Staining (0.2% Crystal Violet in 50% Methanol) per well. Plates were incubated for 1 hour at room temperature. Subsequently the stain was decanted and plates were washed 4 times with double-distilled water. Plates were air-dried for several hours. Stain was dissolved by adding 2 ml buffer (0.1 M Tris pH 7.5, 0.2% SDS, 20% Ethanol) per well and shaking the plates. Absorbance at 590 nm was measured using a SpectraMax M2^e plate reader (Molecular Devices). In order to subtract starting cell numbers, a control plate was fixed and stained on the same day the compound was added. Final results were calculated by subtracting the starting cell absorbance from that of control (DMSO) or compound treated cells. Values lower than zero indicate cell death.

Assay [7] concerns Panc1 cells. As to the kind of experiment: Crystal Violet assay of siRNA-treated cells. The following applies: BUBR1 siRNA pool, 30 nM, 48 hours. Here is the method: as §3, §4
For assay [8], the system named is HCT116 cells. As to the kind of experiment: Crystal Violet assay of siRNA-treated cells. As to conditions: BUBR1 siRNA pool, 50 nM, 48 hours. As for the experimental part: as §3, §4

`N#CCCNc1nonc1-c1nc2ccccc2n1CC(=O)c1ccc(N)cc1` [BAL27862, 3-(4-{1-[2-(4-Amino-phenyl)-2-oxo-ethyl]-1H-benzoimidazol-2-yl}-furazan-3-ylamino)-propionitrile]: the “resistance factors versus parental lines (based on IC50 determinations)” value was determined as 3.0 fold in assay [1], 5.3 fold in assay [2], 7.6 fold in assay [3] and 11.6 fold in assay [4]. Moreover, the “HeLa cell number and fraction of cells with a normal phenotype after pooled BUBR1 siRNA” value in assay [5] was “BUBR1 was required for optimal effects”. Besides, the “cellular proliferation with reduced BUBR1 expression” value in assay [6] (BUBR1 siRNA pool, 50 nM) is recorded as “same effects were again observed”; in assay [7] it was “same effects were again observed”; in assay [8], “same effects were again observed”. Also, in assay [6] (siRNA #1-4, 50 nM), the “effect on cellular proliferation after individual BUBR1 siRNAs” value is given as “decreased the effect of BAL27862 on cellular proliferation”.

Values taken from patent publication US9970938B2, “Use of BUBR1 as a biomarker of drug response to furazanobenzimidazoles” (Basilea Pharmaceutica AG, priority 2011, dated 2018).
